Results taken from patent publication US4713367A, “Retro-inverso analogs of the bradykinin potentiating peptide BPP5a” (Enichem S.p.A., priority 1986, dated 1987).
*1 amine or outer side, *2 acyl side, *3 side chain or, on linkers, in order; H or OH if unused. Where a SMILES comes first, the peptide text is derived from it. [ ]: non-standard residue; d: D form. X1 = O=C([C@@H]1C[C@H](Sc2ccccc2)CN1[*:1])[*:2]; pGlu = O=C1CC[C@@H](C(=O)O)N1

How the values were obtained:
[1] = system: angiotensin converting enzyme; assay: Degradation in vitro by the angiotensin converting enzyme; assay type: in vitro ADME; details: in the presence of the angiotensin converting enzyme
[2] = molecular target: T1, angiotensin converting enzyme (Oryctolagus cuniculus, UniProt P12822); assay: Inhibition of the angiotensin converting enzyme (IC50); assay type: biochemical, rabbit; details: for IC50: enzyme isolated from rabbit lungs (Cushman and Cheung)
T1 construct: The enzyme employed in this test has been isolated from rabbit lungs; from tissue; host or cells: rabbit lungs
T1 sequence (P12822 34-1310): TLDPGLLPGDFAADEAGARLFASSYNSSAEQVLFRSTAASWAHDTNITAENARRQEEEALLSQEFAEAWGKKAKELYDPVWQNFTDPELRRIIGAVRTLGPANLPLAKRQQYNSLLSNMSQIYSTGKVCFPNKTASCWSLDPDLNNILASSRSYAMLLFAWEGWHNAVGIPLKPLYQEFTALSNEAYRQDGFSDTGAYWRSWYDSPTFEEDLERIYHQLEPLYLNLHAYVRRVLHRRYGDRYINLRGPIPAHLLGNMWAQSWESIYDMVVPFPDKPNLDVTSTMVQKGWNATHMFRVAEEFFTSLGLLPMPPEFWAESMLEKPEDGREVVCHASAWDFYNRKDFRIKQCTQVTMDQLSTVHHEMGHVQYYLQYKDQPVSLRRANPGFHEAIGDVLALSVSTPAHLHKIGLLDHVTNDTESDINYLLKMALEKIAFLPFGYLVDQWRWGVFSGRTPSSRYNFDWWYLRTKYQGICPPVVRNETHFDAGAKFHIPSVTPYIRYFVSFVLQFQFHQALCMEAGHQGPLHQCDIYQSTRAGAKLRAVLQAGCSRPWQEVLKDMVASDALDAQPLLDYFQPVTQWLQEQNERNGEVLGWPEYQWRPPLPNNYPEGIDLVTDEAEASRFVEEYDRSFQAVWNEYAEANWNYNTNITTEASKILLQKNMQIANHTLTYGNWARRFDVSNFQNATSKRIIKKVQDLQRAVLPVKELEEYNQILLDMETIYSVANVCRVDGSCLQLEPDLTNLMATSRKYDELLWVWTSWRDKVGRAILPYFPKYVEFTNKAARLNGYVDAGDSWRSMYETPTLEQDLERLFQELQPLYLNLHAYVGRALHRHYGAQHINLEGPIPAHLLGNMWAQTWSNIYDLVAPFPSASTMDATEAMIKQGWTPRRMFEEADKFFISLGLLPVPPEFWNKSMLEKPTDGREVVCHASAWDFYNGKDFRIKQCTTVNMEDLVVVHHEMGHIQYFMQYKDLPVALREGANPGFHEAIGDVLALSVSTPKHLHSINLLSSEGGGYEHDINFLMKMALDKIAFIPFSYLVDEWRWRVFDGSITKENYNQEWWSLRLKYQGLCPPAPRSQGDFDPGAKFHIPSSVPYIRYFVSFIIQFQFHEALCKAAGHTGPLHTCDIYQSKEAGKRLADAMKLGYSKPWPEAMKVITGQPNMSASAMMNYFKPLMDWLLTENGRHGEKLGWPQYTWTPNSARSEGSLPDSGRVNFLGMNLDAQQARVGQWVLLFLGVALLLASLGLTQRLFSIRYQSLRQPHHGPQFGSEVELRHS
From the text: In particular, comparative experiments carried out […] in order to evaluate the ACE inhibitory activity of the compounds of the present invention gave the results reported in following table I (IC50 represents the concentration of the test compound, in μM, which inhibits the angiotensin converting enzyme by 50%. The enzyme employed in this test has been isolated from rabbit lungs according to the method by Cushman and Cheung described in Biochem. Pharmacol. 20, 1637, (1971)).

[3] = system: angiotensin converting enzyme; details: 15 minutes of preincubation; cited from earlier work
[4] = induced experimentally in rats; cited from earlier work
bradykinin = bradykinin injected directly into the coronary arteries; cited from earlier work
angiotensin I = details: infused directly into the brain; cited from earlier work
[5] = Hypotensive effect in anesthetized normotensive rats; assay type: in vivo, rat; details: injected intravenously at 0.18 mg/Kg
Description: In vivo experiments carried out in anesthetized normotensive rats confirmed a hypotensive effect of the compounds of the invention as compound (a), when injected intravenously at a dosage of 0.18 mg/Kg, produced a blood pressure decrease of about 20 mmHg.

Structure (SMILES) | degradation by / resistance towards cleavage by ACE [1] | IC50 [2] | also measured
C[C@H](NC(=O)[C@H](Cc1ccccc1)NC(=O)[C@H](CCCCN)NC(=O)[C@@H]1CCC(=O)N1)C(=O)N1C[C@@H](Sc2ccccc2)C[C@H]1C(=O)O [(e), Glp--Lys--Phe--Ala--Pro(S--Ph)--OH] ([pGlu]KFA[X1]-OH) | quickly degraded | 60 nM | –
CC(C(=O)N[C@H](Cc1ccccc1)NC(=O)[C@H](CCCCN)NC(=O)[C@@H]1CCC(=O)N1)C(=O)N1CCC[C@H]1C(=O)O (stereo partly drawn) [Glp-Lys-gPhe-mAla-Pro-OH] | – | – | IC50 relative to that of the natural product (BPP5a) or the uninverted peptide Glp-Lys-Phe-Ala-Pro-OH ([2]; in vitro): more than 1000 times higher
C[C@H](NC(=O)[C@H](Cc1c[nH]c2ccccc12)NC(=O)[C@H](CCCCN)NC(=O)[C@@H]1CCC(=O)N1)C(=O)N1CCC[C@H]1C(=O)O [(d), Glp--Lys--Trp--Ala--Pro--OH] ([pGlu]KWAP-OH) | quickly degraded | 100 nM | inhibitory activity after preincubation with the angiotensin converting enzyme [3]: complete loss of inhibitory activity; control of reno-vascular hypertension [4]: capable of controlling; in vivo activity of bradykinin (bradykinin): potentiates; CNS-mediated hypertensive and tachycardic action of angiotensin I (angiotensin I): inhibits
C[C@@H](C(=O)N[C@H](Cc1ccccc1)NC(=O)[C@H](CCCCN)NC(=O)[C@@H]1CCC(=O)N1)C(=O)N1C[C@@H](Sc2ccccc2)C[C@H]1C(=O)O [compound (a), Glp--Lys--gPhe--(S)mAla--Pro(S--Ph)--OH] | complete resistance | – | blood pressure decrease [5]: about 20 mmHg
C[C@H](NC(=O)[C@H](Cc1ccccc1)NC(=O)[C@H](CCCCN)NC(=O)[C@@H]1CCC(=O)N1)C(=O)N1CCC[C@H]1C(=O)O [(c), Glp--Lys--Phe--Ala--Pro--OH] ([pGlu]KFAP-OH) | quickly degraded | 100 nM | –
C[C@@H](C(=O)N[C@H](Cc1ccccc1)NC(=O)[C@H](CCCCN)NC(=O)[C@@H]1CCC(=O)N1)C(=O)N1CCC[C@H]1C(=O)O [(f), Glp--Lys--gPhe--(S)mAla--Pro--OH] | complete resistance | – | –
C[C@H](C(=O)N[C@H](Cc1ccccc1)NC(=O)[C@H](CCCCN)NC(=O)[C@@H]1CCC(=O)N1)C(=O)N1C[C@@H](Sc2ccccc2)C[C@H]1C(=O)O [(b), Glp--Lys--gPhe--(R)mAla--Pro(S--Ph)--OH] | complete resistance | – | –
C[C@H](C(=O)N[C@H](Cc1ccccc1)NC(=O)[C@H](CCCCN)NC(=O)[C@@H]1CCC(=O)N1)C(=O)N1CCC[C@H]1C(=O)O [(g), Glp--Lys--gPhe--(R)mAla--Pro--OH] | complete resistance | – | –
